From US9481688B2, “(Thieno[2,3-b][1,5]benzoxazepin-4-yl)piperazin-1-yl compounds as dual activity H1 inverse agonists/5-HT2A antagonists” (Eli Lilly and Company, priority 2011, dated 2016)
pKi: −log10 of the molar value. Where a name gives a salt, the structure may show the parent alone.

How the values were obtained:
[1] = molecular target: recombinant 5-HT2A receptor (human) (Homo sapiens (Human), UniProt P28223); test: 5-HT2A competition binding assay ([3H]-Ketanserin, SPA); conditions: dihydrochloride
Method: [^3H]-Ketanserin binding experiments are carried out in SPA 96-well format. Membranes used in this assay are prepared from AV-12 cells stably expressing recombinant 5-HT2A receptor (human). The incubation is initiated by the addition of a mixture of WGA YSi SPA beads (1 mg/well, Perkin Elmer (MA, USA), RPNQ0011) and 2 μg membranes to assay buffer (67 mM Tris, 0.5 mM EDTA; pH 7.6) containing 3.1 nM [^3H]-Ketanserin and varying concentrations of the test compound (10 point concentration response curves). Non-specific binding is determined in the presence of 20 μM 1-(1-Naphthyl) piperazine. Samples are incubated for 4 hr. at room temperature (22° C.) and then read in a Microbeta Trilux.
Curves are evaluated using a 4-parameter logistic nonlinear equation to obtain the concentration of competitor causing 50% inhibition of radioligand binding (IC50). Equilibrium dissociation constants (Ki) are calculated according to the equation Ki=IC50/(1+L/Kd), where L equals the concentration of radioligand used in the experiment and Kd equals the equilibrium dissociation constant of the radioligand for the receptor, determined from standard saturation analysis or homologous competition experiments. Reported values for Ki, where n values are indicated, are shown as geometric mean±the standard error of the mean (SEM), with the number of replicate determinations indicated by n. […]

[2] = molecular target: 5-HT2B (Homo sapiens (Human), UniProt P41595); test: 5-HT2B antagonist functional activity; type: biochemical
Text: (§1) Further, the compounds of the invention may be tested in binding assays and functional activity assays by well known methods for other physiologically important receptors such as, but not limited to, the hERG channel, other serotonin receptors (specifically 5-HT1B, 5-HT1D, receptors, lack of agonist activity at 5-HT2B receptors, 5-HT2C, 5-HT5, 5-HT6, and 5-HT7 receptors), dopaminergic receptors (specifically D1, D2, and D3), GABAA receptors, adrenergic receptors and monoamine transporters.

[3] = molecular target: 5-HT1B (Homo sapiens (Human), UniProt P28222); test: 5-HT1B binding
Text: as §1

[4] = molecular target: Adrenergic alpha1A (Homo sapiens (Human), UniProt P35348); test: Adrenergic alpha1A binding
Text: as §1

[5] = molecular target: Adrenergic alpha2B (Homo sapiens (Human), UniProt P18089); test: Adrenergic alpha2B binding
Text: as §1

[6] = Plasma clearance in rat (intravenous); type: in vivo; conditions: 1 mg/kg, dihydrochloride
Method: Male Sprague Dawley rats (body weight range 250-320 g) with indwelling femoral arterial cannulae are obtained from Charles River, Wilmington, Mass. 01887, USA. Test compound is administered intravenously in solution (1 mL/kg) in 20% Captisol® in 22.5 mM phosphate buffer, pH 2, at a final drug concentration of 1.0 mg/mL (free base equivalents). Blood samples are obtained using the indwelling cannula over 24 hr. Samples of plasma are obtained by centrifugation and stored frozen (−20° C.), or on dry ice, prior to analysis.
Frozen plasma samples are thawed to room temperature for bioanalysis of concentrations of test compound. A related internal standard compound in acetonitrile/methanol (1:1, v/v) is added to all samples of plasma (1:1, v/v). The samples are centrifuged to remove precipitated protein prior to analysis. The supernatants are analysed by injection and rapid gradient elution on a Javelin Betasil C18 column (20×2.1 mm cartridge, Mobile phase A: Water/1 M NH4HCO3, 2000:10 v/v, Mobile Phase B: MeOH/1 M NH4HCO3, 2000:10 v/v). The eluted analytes are detected by LC-MS-MS analysis using a Sciex API 4000 triple quadrupole mass spectrometer. Concentrations of compound are determined from standards prepared and analysed under identical conditions. Clearance is calculated using non-compartmental analysis in Watson 7.4, Thermo Fisher Scientific, Inc.

Sequence of 5-HT2B (P41595 whole entry, species assumed): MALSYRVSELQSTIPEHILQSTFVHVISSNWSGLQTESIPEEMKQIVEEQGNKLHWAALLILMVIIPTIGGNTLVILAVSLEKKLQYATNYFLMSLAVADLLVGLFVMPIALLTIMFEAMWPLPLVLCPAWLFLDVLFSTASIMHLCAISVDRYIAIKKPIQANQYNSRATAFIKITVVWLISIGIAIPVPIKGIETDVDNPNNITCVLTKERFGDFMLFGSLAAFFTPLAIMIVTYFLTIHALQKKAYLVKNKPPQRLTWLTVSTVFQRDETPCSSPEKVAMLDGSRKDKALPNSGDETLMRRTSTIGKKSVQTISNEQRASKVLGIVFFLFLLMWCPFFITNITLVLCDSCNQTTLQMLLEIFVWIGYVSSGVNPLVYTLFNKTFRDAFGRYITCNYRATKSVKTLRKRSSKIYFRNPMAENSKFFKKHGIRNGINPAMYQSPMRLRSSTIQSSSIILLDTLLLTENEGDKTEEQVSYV
Sequence of 5-HT1B (P28222 whole entry, species assumed): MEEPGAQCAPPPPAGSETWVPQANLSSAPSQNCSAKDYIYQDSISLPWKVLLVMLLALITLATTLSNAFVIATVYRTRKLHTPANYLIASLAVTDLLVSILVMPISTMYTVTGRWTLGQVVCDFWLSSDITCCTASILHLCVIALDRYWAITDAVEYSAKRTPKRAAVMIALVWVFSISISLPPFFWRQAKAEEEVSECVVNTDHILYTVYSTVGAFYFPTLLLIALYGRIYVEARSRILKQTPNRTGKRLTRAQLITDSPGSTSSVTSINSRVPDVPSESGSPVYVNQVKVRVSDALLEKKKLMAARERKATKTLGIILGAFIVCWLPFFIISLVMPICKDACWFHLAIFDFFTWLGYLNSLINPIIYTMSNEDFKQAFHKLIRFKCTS
Sequence of Adrenergic alpha1A (P35348 whole entry): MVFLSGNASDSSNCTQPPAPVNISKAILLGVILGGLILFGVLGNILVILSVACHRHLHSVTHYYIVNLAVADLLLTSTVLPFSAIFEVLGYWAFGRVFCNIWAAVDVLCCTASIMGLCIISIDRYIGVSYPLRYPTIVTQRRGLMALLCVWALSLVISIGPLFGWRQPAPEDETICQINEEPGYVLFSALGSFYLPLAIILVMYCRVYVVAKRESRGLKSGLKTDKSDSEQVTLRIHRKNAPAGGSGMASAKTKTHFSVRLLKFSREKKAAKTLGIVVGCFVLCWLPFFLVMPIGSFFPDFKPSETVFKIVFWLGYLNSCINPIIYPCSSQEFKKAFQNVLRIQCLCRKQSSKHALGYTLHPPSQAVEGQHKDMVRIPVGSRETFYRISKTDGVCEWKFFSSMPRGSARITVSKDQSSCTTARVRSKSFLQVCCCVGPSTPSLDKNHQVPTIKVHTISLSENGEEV
Sequence of Adrenergic alpha2B (P18089 whole entry): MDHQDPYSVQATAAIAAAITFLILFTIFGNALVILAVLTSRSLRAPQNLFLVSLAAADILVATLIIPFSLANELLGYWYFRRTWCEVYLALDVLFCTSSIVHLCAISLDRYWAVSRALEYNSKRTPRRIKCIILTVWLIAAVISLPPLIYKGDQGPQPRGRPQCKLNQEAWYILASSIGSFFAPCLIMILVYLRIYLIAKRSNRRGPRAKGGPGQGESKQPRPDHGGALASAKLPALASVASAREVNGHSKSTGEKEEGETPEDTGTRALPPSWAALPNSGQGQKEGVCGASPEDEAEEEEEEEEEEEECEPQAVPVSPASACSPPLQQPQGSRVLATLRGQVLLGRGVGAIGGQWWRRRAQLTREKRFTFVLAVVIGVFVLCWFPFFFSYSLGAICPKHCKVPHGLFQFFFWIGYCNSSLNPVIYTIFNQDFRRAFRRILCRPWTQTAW

Cc1ccc2c(c1)Oc1sc(Cl)cc1C(N1CCN(CC(C)(C)C(=O)O)CC1)=N2 [Example 3, 3-[4-(2-chloro-8-methyl-thieno[2,3-b][1,5]benzoxazepin-4-yl)piperazin-1-yl]-2,2-dimethyl-propanoic acid dihydrochloride]
pKi [1]: 8.15
Kb [2]: 78.6 nM
pKi [3]: < 5.25
pKi [4]: < 4.99
pKi [5]: < 5.24
clearance [6]: 14.5 (+/−1.4, n = 3) mL/min./Kg
